How the values were obtained:
[1] = tested on: control sera (pooled serum of ten healthy LUMC hospital workers; commercial negative donor pooled serum from the Dutch bloodbank); format: binding, human; design: Binding of Control serum LUMC to linear peptides / Binding of Control serum Blood-bank to linear peptides / Binding of Control serum LUMC to looped peptides / Binding of Control Serum Blood-Bank to Looped peptides / Binding of Control serum LUMC to linear peptides of the protein M of SARS-CoV Urbani / Binding of Control serum Blood-bank to linear peptides of the protein M of SARS-CoV Urbani / Binding of Control serum LUMC to looped peptides of the protein M of SARS-CoV Urbani / Binding of Control Serum Blood-Bank to Looped peptides of the protein M of SARS-CoV Urbani: unit not given here
[2] = tested on: rabbit serum obtained by immunizing a rabbit with the SARS-CoV strain Frankfurt 1; format: binding; design: Binding of a rabbit serum to linear peptides / Binding of a rabbit serum to looped peptides / Rabbit serum linear peptides / Rabbit serum looped peptides / Binding of a rabbit serum to linear peptides of protein N of SARS-CoV Urbani (Rabbit serum linear peptides) / Binding of a rabbit serum to looped/cyclic peptides of protein N of SARS-CoV Urbani (Rabbit serum looped peptides): unit not given here
[3] = tested on: antibodies in sera from SARS patients (sera 1a, 1b, 2, 6, 37, 62, London, SARS-yellow, SARS-green); format: binding, human; design: Binding of serum 6 to linear peptides of protein X1 of SARS-CoV Urbani / Binding of serum 37 to linear peptides of protein X1 of SARS-CoV Urbani / Binding of serum 6 to looped/cyclic peptide (PEPSCAN-ELISA) / Binding of serum 37 to looped/cyclic peptide (PEPSCAN-ELISA) / Binding of serum 37 to looped/cyclic peptides of protein X1 of SARS-CoV Urbani / Binding of serum 6 to linear peptides of protein X2 / Binding of serum 37 to linear peptides of protein X2 / Binding of serum 37 to looped/cyclic peptides of protein X2 of SARS-CoV Urbani / Binding of serum 6 to linear peptides of protein M of SARS-CoV Urbani / Binding of serum 37 to linear peptides of protein M of SARS-CoV Urbani / Binding of serum 6 to looped/cyclic peptides of protein M of SARS-CoV Urbani / Binding of serum 37 to looped/cyclic peptides of protein M of SARS-CoV Urbani / Binding of serum 6 to linear peptides of protein X3 of SARS-CoV Urbani / Binding of serum 37 to linear peptides of protein X3 of SARS-CoV Urbani / Binding of serum 37 to looped/cyclic peptides of protein X3 of SARS-CoV Urbani / Binding of serum 6 to linear peptides of protein X4 of SARS-CoV Urbani / Binding of serum 37 to linear peptides of protein X4 of SARS-CoV Urbani / Binding of serum 37 to looped/cyclic peptides of protein X4 of SARS-CoV Urbani / Binding of serum 6 to linear peptides of protein X5 of SARS-CoV Urbani / Binding of serum 37 to linear peptides of protein X5 of SARS-CoV Urbani / Binding of serum 37 to looped/cyclic peptides of protein X5 of SARS-CoV Urbani / Binding of serum 6 to linear peptides of protein N of SARS-CoV Urbani / Binding of serum 37 to linear peptides of protein N of SARS-CoV Urbani / Binding of serum 6 to linear peptide (PEPSCAN-ELISA) / Binding of serum 1a to looped/cyclic peptides of protein N of SARS-CoV Urbani / Binding of serum 1b to looped/cyclic peptides of protein N of SARS-CoV Urbani / Binding of serum 2 to looped/cyclic peptides of protein N of SARS-CoV Urbani / Binding of serum 6 to looped/cyclic peptides of protein N of SARS-CoV Urbani / Binding of serum 37 to looped/cyclic peptides of protein N of SARS-CoV Urbani / Binding of serum 62 to looped/cyclic peptides of protein N of SARS-CoV Urbani / Binding of serum London to looped/cyclic peptides of protein N of SARS-CoV Urbani / Binding of serum SARS-green to looped/cyclic peptides of protein N of SARS-CoV Urbani: unit not given here

For LQFAYSNRNRFLYII, the “Binding of Control Serum Blood-Bank to Looped peptides of the protein M of SARS-CoV Urbani” value [1] was 0.6, the “Binding of Control serum Blood-bank to linear peptides of the protein M of SARS-CoV Urbani” value [1] was 0.6 and the “Binding of Control serum LUMC to linear peptides of the protein M of SARS-CoV Urbani” value [1] was 0.4. For the same sequence, the “Binding of Control serum LUMC to looped peptides of the protein M of SARS-CoV Urbani” value [1] was 0.6, the “Rabbit serum linear peptides” value [2] was 0.6 and the “Rabbit serum looped peptides” value [2] was 0.4. For the same sequence, the “Binding of serum 1a to linear peptides of protein M of SARS-CoV Urbani” value [3] was 0.7, the “Binding of serum 1a to looped/cyclic peptides of protein M of SARS-CoV Urbani” value [3] was 0.7 and the “Binding of serum 1b to linear peptides of protein M of SARS-CoV Urbani” value [3] was 0.5. The “Binding of serum 1b to looped/cyclic peptides of protein M of SARS-CoV Urbani” value [3] was 0.5, the “Binding of serum 2 to linear peptides of protein M of SARS-CoV Urbani” value [3] was 0.6 and the “Binding of serum 2 to looped/cyclic peptides of protein M of SARS-CoV Urbani” value [3] was 0.5. For the same sequence, the “Binding of serum 6 to linear peptides of protein M of SARS-CoV Urbani” value [3] was 0.3, the “Binding of serum 6 to looped/cyclic peptides of protein M of SARS-CoV Urbani” value [3] was 0.7 and the “Binding of serum 37 to linear peptides of protein M of SARS-CoV Urbani” value [3] was 0.7. For the same sequence, the “Binding of serum 37 to looped/cyclic peptides of protein M of SARS-CoV Urbani” value [3] was 0.6, the “Binding of serum 62 to linear peptides of protein M of SARS-CoV Urbani” value [3] was 0.7 and the “Binding of serum 62 to looped/cyclic peptides of protein M of SARS-CoV Urbani” value [3] was 0.6. For the same sequence, the “Binding of serum London to linear peptides of protein M of SARS-CoV Urbani” value [3] was 0.2, the “Binding of serum London to looped/cyclic peptides of protein M of SARS-CoV Urbani” value [3] was 0.2 and the “Binding of serum SARS-green to linear peptides of protein M of SARS-CoV Urbani” value [3] was 0.2. For the same sequence, the “Binding of serum SARS-green to looped/cyclic peptides of protein M of SARS-CoV Urbani” value [3] was 0.4, the “Binding of serum SARS-yellow to linear peptides of protein M of SARS-CoV Urbani” value [3] was 0.0 and the “Binding of serum SARS-yellow to looped/cyclic peptides of protein M of SARS-CoV Urbani” value [3] was 0.5.
With AAVYRINWVTGGIAI the “Binding of Control Serum Blood-Bank to Looped peptides of the protein M of SARS-CoV Urbani” value [1] was 0.8, the “Binding of Control serum Blood-bank to linear peptides of the protein M of SARS-CoV Urbani” value [1] was 0.8 and the “Binding of Control serum LUMC to linear peptides of the protein M of SARS-CoV Urbani” value [1] was 1.0. The “Binding of Control serum LUMC to looped peptides of the protein M of SARS-CoV Urbani” value [1] was 0.5, the “Rabbit serum linear peptides” value [2] was 0.4 and the “Rabbit serum looped peptides” value [2] was 0.4. The “Binding of serum 1a to linear peptides of protein M of SARS-CoV Urbani” value [3] was 0.9, the “Binding of serum 1a to looped/cyclic peptides of protein M of SARS-CoV Urbani” value [3] was 0.6 and the “Binding of serum 1b to linear peptides of protein M of SARS-CoV Urbani” value [3] was 0.7. The “Binding of serum 1b to looped/cyclic peptides of protein M of SARS-CoV Urbani” value [3] was 0.4, the “Binding of serum 2 to linear peptides of protein M of SARS-CoV Urbani” value [3] was 0.7 and the “Binding of serum 2 to looped/cyclic peptides of protein M of SARS-CoV Urbani” value [3] was 0.6. The “Binding of serum 6 to linear peptides of protein M of SARS-CoV Urbani” value [3] was 0.5, the “Binding of serum 6 to looped/cyclic peptides of protein M of SARS-CoV Urbani” value [3] was 0.5 and the “Binding of serum 37 to linear peptides of protein M of SARS-CoV Urbani” value [3] was 0.6. For the same sequence, the “Binding of serum 37 to looped/cyclic peptides of protein M of SARS-CoV Urbani” value [3] was 0.7, the “Binding of serum 62 to linear peptides of protein M of SARS-CoV Urbani” value [3] was 0.5 and the “Binding of serum 62 to looped/cyclic peptides of protein M of SARS-CoV Urbani” value [3] was 0.4. The “Binding of serum London to linear peptides of protein M of SARS-CoV Urbani” value [3] was 0.4, the “Binding of serum London to looped/cyclic peptides of protein M of SARS-CoV Urbani” value [3] was 0.2 and the “Binding of serum SARS-green to linear peptides of protein M of SARS-CoV Urbani” value [3] was 0.6. For the same sequence, the “Binding of serum SARS-green to looped/cyclic peptides of protein M of SARS-CoV Urbani” value [3] was 0.0, the “Binding of serum SARS-yellow to linear peptides of protein M of SARS-CoV Urbani” value [3] was 0.3 and the “Binding of serum SARS-yellow to looped/cyclic peptides of protein M of SARS-CoV Urbani” value [3] was 0.7.
In the case of VVILRIGTQVLKTMS, the “Binding of Control Serum Blood-Bank to Looped peptides” value [1] is reported as 0.3, the “Binding of Control serum Blood-bank to linear peptides” value [1] is reported as 0.7 and the “Binding of Control serum LUMC to linear peptides” value [1] is reported as 0.5. The “Binding of Control serum LUMC to looped peptides” value [1] was 0.3, the “Binding of a rabbit serum to linear peptides” value [2] was 0.4 and the “Binding of a rabbit serum to looped peptides” value [2] was 0.4. The “Binding of serum 1a to linear peptides of protein X2” value [3] was 0.6, the “Binding of serum 1a to looped/cyclic peptides of protein X2 of SARS-CoV Urbani” value [3] was 0.4 and the “Binding of serum 1b to linear peptides of protein X2” value [3] was 0.5. For the same sequence, the “Binding of serum 1b to looped/cyclic peptides of protein X2 of SARS-CoV Urbani” value [3] was 0.4, the “Binding of serum 2 to linear peptides of protein X2” value [3] was 0.5 and the “Binding of serum 2 to looped/cyclic peptides of protein X2 of SARS-CoV Urbani” value [3] was 0.3. The “Binding of serum 6 to linear peptides of protein X2” value [3] was 0.5, the “Binding of serum 6 to looped/cyclic peptides of protein X2 of SARS-CoV Urbani” value [3] was 0.3 and the “Binding of serum 37 to linear peptides of protein X2” value [3] was 0.6. For the same sequence, the “Binding of serum 37 to looped/cyclic peptides of protein X2 of SARS-CoV Urbani” value [3] was 0.3, the “Binding of serum 62 to linear peptides of protein X2” value [3] was 0.6 and the “Binding of serum 62 to looped/cyclic peptides of protein X2 of SARS-CoV Urbani” value [3] was 0.4. The “Binding of serum London to linear peptides of protein X2” value [3] was 0.4, the “Binding of serum London to looped/cyclic peptides of protein X2 of SARS-CoV Urbani” value [3] was 0.2 and the “Binding of serum SARS-green to linear peptides of protein X2” value [3] was 0.5. For the same sequence, the “Binding of serum SARS-green to looped/cyclic peptides of protein X2 of SARS-CoV Urbani” value [3] was 0.3, the “Binding of serum SARS-yellow to linear peptides of protein X2” value [3] was 0.6 and the “Binding of serum SARS-yellow to looped/cyclic peptides of protein X2 of SARS-CoV Urbani” value [3] was 0.4.

Reference: patent publication US20070128217A1 (priority 2003, published 2007)
